Measured values published in PMC7150870 (Toxins, 2020).
Marks after values point to notes of the source that are not given here.

Assays:
HEK293T [1] = type: cell-based, human
cells = settings: cited from earlier work
RAW 264.7 = type: cell-based, mouse
Caco-2 = type: cell-based, human
HepG2 = type: cell-based, human
HEK293T [2] = type: cell-based, human; remark: listed apart in the source
HEK293T cells = type: cell-based, human; settings: read-out: IC50 halving the HEK293T cells viability
HEK 293T cells = type: cell-based, human
[3] = tested on: HepG2, Caco-2, RAW 264.7, and HEK 293T cells; settings: read-out: IC50 range in studied cells

beauvericin
combination index, mixture of DAS (6.58 nM) (HEK293T [1]): 0.96 ± 0.04 Add | combination index, mixture of HT-2 (21.22 nM) (HEK293T [1]): 0.91 ± 0.04 Add | combination index, mixture of T-2 (3.87 nM) (HEK293T [1]): 0.95 ± 0.07 Add | type of interaction, mixture of DAS (6.58 nM) (HEK293T [1]): 0.96 ± 0.04 Add (key: Syn: Combination index (CI) < 0.9; Add: 0.9 ≤ CI ≤ 1; Ant: CI > 1) | type of interaction, mixture of HT-2 (21.22 nM) (HEK293T [1]): 0.91 ± 0.04 Add (key: Syn: Combination index (CI) < 0.9; Add: 0.9 ≤ CI ≤ 1; Ant: CI > 1) | type of interaction, mixture of T-2 (3.87 nM) (HEK293T [1]): 0.95 ± 0.07 Add (key: Syn: Combination index (CI) < 0.9; Add: 0.9 ≤ CI ≤ 1; Ant: CI > 1) | concentration with statistically significant decrease in viability of cells (cells): 3 µM

diacetoxyscirpenol [DAS]
IC50 (RAW 264.7): 3.66 ± 0.37 nM | IC50 (Caco-2): 17.7 ± 0.66 nM | IC50 (HepG2): 13.4 ± 1.79 nM | IC50 (HEK293T [2]): 6.58 ± 0.36 nM | IC50 (HEK293T cells): 15 nM | combination index, mixture of T-2 (3.87 nM) (HEK293T [1]): 0.64 ± 0.01 Syn | type of interaction, mixture of T-2 (3.87 nM) (HEK293T [1]): 0.64 ± 0.01 Syn (key: Syn: Combination index (CI) < 0.9; Add: 0.9 ≤ CI ≤ 1; Ant: CI > 1) | combination index, silibinin 0.9 µM (HEK 293T cells): 1.00 ± 0.04 Add | combination index, silibinin 1.7 µM (HEK 293T cells): 1.23 ± 0.06 Ant | combination index, silibinin 3.4 µM (HEK 293T cells): 1.21 ± 0.05 Ant | combination index, silibinin 6.8 µM (HEK 293T cells): 1.50 ± 0.04 Ant | combination index, silibinin 13.6 µM (HEK 293T cells): 1.56 ± 0.13 Ant | combination index, silibinin 27.3 µM (HEK 293T cells): 1.48 ± 0.08 Ant | combination index, silibinin 54.5 µM (HEK 293T cells): 1.15 ± 0.02 Ant | combination index, silibinin 109.00 µM (HEK 293T cells): 1.14 ± 0.01 Ant | type of interaction, silibinin 0.9 µM (HEK 293T cells): 1.00 ± 0.04 Add (key: Syn: Combination index (CI) < 0.9; Add: 0.9 ≤ CI ≤ 1; Ant: CI > 1) | type of interaction, silibinin 1.7 µM (HEK 293T cells): 1.23 ± 0.06 Ant (key: Syn: Combination index (CI) < 0.9; Add: 0.9 ≤ CI ≤ 1; Ant: CI > 1) | type of interaction, silibinin 3.4 µM (HEK 293T cells): 1.21 ± 0.05 Ant (key: Syn: Combination index (CI) < 0.9; Add: 0.9 ≤ CI ≤ 1; Ant: CI > 1) | type of interaction, silibinin 6.8 µM (HEK 293T cells): 1.50 ± 0.04 Ant (key: Syn: Combination index (CI) < 0.9; Add: 0.9 ≤ CI ≤ 1; Ant: CI > 1) | type of interaction, silibinin 13.6 µM (HEK 293T cells): 1.56 ± 0.13 Ant (key: Syn: Combination index (CI) < 0.9; Add: 0.9 ≤ CI ≤ 1; Ant: CI > 1) | type of interaction, silibinin 27.3 µM (HEK 293T cells): 1.48 ± 0.08 Ant (key: Syn: Combination index (CI) < 0.9; Add: 0.9 ≤ CI ≤ 1; Ant: CI > 1) | type of interaction, silibinin 54.5 µM (HEK 293T cells): 1.15 ± 0.02 Ant (key: Syn: Combination index (CI) < 0.9; Add: 0.9 ≤ CI ≤ 1; Ant: CI > 1) | type of interaction, silibinin 109.00 µM (HEK 293T cells): 1.14 ± 0.01 Ant (key: Syn: Combination index (CI) < 0.9; Add: 0.9 ≤ CI ≤ 1; Ant: CI > 1) | IC50 [3]: 3.66 to 17.7 nM | metabolites found by non-target U-HPLC-MS analysis (Caco-2 cells): 15-monoacetoxyscirpenol, 4-monoacetoxyscirpenol, 7-hydroxy, 8β-hydroxy, and deepoxy-15- monoacetoxyscirpenol | transepithelial transport, Apical Medium (Caco-2 cells): 29.61 ± 0.87^abc % | transepithelial transport, Basolateral Medium (Caco-2 cells): 40.12 ± 0.50^f % | transepithelial transport, Caco-2 Cells (Caco-2 cells): 0.02 ± 0.00^a % | transepithelial transport, Raw 264.7 Cells (Caco-2 cells): 0.02 ± 0.00^a % | transepithelial transport, Total (Caco-2 cells): 69.77 ± 0.99^cd %

enniatin A1 [ENN-A1]
combination index, mixture of DAS (6.58 nM) (HEK293T [1]): 0.79 ± 0.04 Syn | combination index, mixture of HT-2 (21.22 nM) (HEK293T [1]): 0.93 ± 0.01 Add | combination index, mixture of T-2 (3.87 nM) (HEK293T [1]): 1.27 ± 0.13 Ant | type of interaction, mixture of DAS (6.58 nM) (HEK293T [1]): 0.79 ± 0.04 Syn (key: Syn: Combination index (CI) < 0.9; Add: 0.9 ≤ CI ≤ 1; Ant: CI > 1) | type of interaction, mixture of HT-2 (21.22 nM) (HEK293T [1]): 0.93 ± 0.01 Add (key: Syn: Combination index (CI) < 0.9; Add: 0.9 ≤ CI ≤ 1; Ant: CI > 1) | type of interaction, mixture of T-2 (3.87 nM) (HEK293T [1]): 1.27 ± 0.13 Ant (key: Syn: Combination index (CI) < 0.9; Add: 0.9 ≤ CI ≤ 1; Ant: CI > 1) | concentration with statistically significant decrease in viability of cells (cells): 1 µM

enniatin A [ENN-A]
combination index, mixture of DAS (6.58 nM) (HEK293T [1]): 0.83 ± 0.05 Syn | combination index, mixture of HT-2 (21.22 nM) (HEK293T [1]): 0.80 ± 0.06 Syn | combination index, mixture of T-2 (3.87 nM) (HEK293T [1]): 0.86 ± 0.07 Syn | type of interaction, mixture of DAS (6.58 nM) (HEK293T [1]): 0.83 ± 0.05 Syn (key: Syn: Combination index (CI) < 0.9; Add: 0.9 ≤ CI ≤ 1; Ant: CI > 1) | type of interaction, mixture of HT-2 (21.22 nM) (HEK293T [1]): 0.80 ± 0.06 Syn (key: Syn: Combination index (CI) < 0.9; Add: 0.9 ≤ CI ≤ 1; Ant: CI > 1) | type of interaction, mixture of T-2 (3.87 nM) (HEK293T [1]): 0.86 ± 0.07 Syn (key: Syn: Combination index (CI) < 0.9; Add: 0.9 ≤ CI ≤ 1; Ant: CI > 1) | concentration with statistically significant decrease in viability of cells (cells): 1 µM
